Laboratory results as given in ChEMBL document CHEMBL4673219, “Novel 5,6-disubstituted pyrrolo[2,3-d]pyrimidine derivatives as broad spectrum antiproliferative agents: Synthesis, cell based assays, kinase profile and molecular docking study” (Bioorg Med Chem, 2018).
Several values for one entry are separate records, joined by “and”; a condition that tells them apart may be missing. Identical values can stand only once.

Assays:
Assay type in all cases: functional
RXF 393 = assay: Growth inhibition of human RXF 393 cells assessed as growth percentage at 10 uM incubated for 48 hrs by sulforhodamine B assay relative to control; details: read-out: Activity
OVCAR-8 = assay: Growth inhibition of human OVCAR-8 cells assessed as growth percentage at 10 uM incubated for 48 hrs by sulforhodamine B assay relative to control; details: read-out: Activity
UACC-62 = assay: Growth inhibition of human UACC-62 cells assessed as growth percentage at 10 uM incubated for 48 hrs by sulforhodamine B assay relative to control; details: read-out: Activity
U-251 = assay: Growth inhibition of human U-251 cells assessed as growth percentage at 10 uM incubated for 48 hrs by sulforhodamine B assay relative to control; details: read-out: Activity
NCI-H226 = assay: Growth inhibition of human NCI-H226 cells assessed as growth percentage at 10 uM incubated for 48 hrs by sulforhodamine B assay relative to control; details: read-out: Activity
SR [1] = assay: Growth inhibition of human SR cells assessed as growth percentage at 10 uM incubated for 48 hrs by sulforhodamine B assay relative to control; details: read-out: Activity
CCRF-CEM = assay: Growth inhibition of human CCRF-CEM cells assessed as growth percentage at 10 uM incubated for 48 hrs by sulforhodamine B assay relative to control; details: read-out: Activity
T47D [2] = assay: Growth inhibition of human T47D cells incubated for 48 hrs by sulforhodamine B assay; details: for GI50: 48 h
BT-549 [3] = assay: Growth inhibition of human BT-549 cells incubated for 48 hrs by sulforhodamine B assay
UO-31 = assay: Growth inhibition of human UO-31 cells incubated for 48 hrs by sulforhodamine B assay
M14 = assay: Growth inhibition of human M14 cells incubated for 48 hrs by sulforhodamine B assay
SNB-19 = assay: Growth inhibition of human SNB-19 cells incubated for 48 hrs by sulforhodamine B assay
SF-539 = assay: Growth inhibition of human SF-539 cells incubated for 48 hrs by sulforhodamine B assay
T47D [4] = assay: Growth inhibition of human T47D cells assessed as growth percentage at 100 uM incubated for 48 hrs by sulforhodamine B assay relative to control; details: read-out: Activity
BT-549 [5] = assay: Growth inhibition of human BT-549 cells assessed as growth percentage at 100 uM incubated for 48 hrs by sulforhodamine B assay relative to control; details: read-out: Activity
CAKI-1 [6] = assay: Growth inhibition of human CAKI-1 cells assessed as growth percentage at 100 uM incubated for 48 hrs by sulforhodamine B assay relative to control; details: read-out: Activity
MDA-MB-435 = assay: Growth inhibition of human MDA-MB-435 cells assessed as growth percentage at 100 uM incubated for 48 hrs by sulforhodamine B assay relative to control; details: read-out: Activity
SW-620 = assay: Growth inhibition of human SW-620 cells assessed as growth percentage at 100 uM incubated for 48 hrs by sulforhodamine B assay relative to control; details: read-out: Activity
COLO 205 = assay: Growth inhibition of human COLO 205 cells assessed as growth percentage at 100 uM incubated for 48 hrs by sulforhodamine B assay relative to control; details: read-out: Activity
MDA-MB-231 = assay: Growth inhibition of human MDA-MB-231/ATCC cells assessed as growth percentage at 1 uM incubated for 48 hrs by sulforhodamine B assay relative to control; details: read-out: Activity
PC-3 [7] = assay: Growth inhibition of human PC-3 cells assessed as growth percentage at 1 uM incubated for 48 hrs by sulforhodamine B assay relative to control; details: read-out: Activity
CAKI-1 [8] = assay: Growth inhibition of human CAKI-1 cells assessed as growth percentage at 1 uM incubated for 48 hrs by sulforhodamine B assay relative to control; details: read-out: Activity
786-0 = assay: Growth inhibition of human 786-0 cells assessed as growth percentage at 1 uM incubated for 48 hrs by sulforhodamine B assay relative to control; details: read-out: Activity
IGROV-1 = assay: Growth inhibition of human IGROV-1 assessed as growth percent at 1 uM incubated for 48 hrs by sulforhodamine B assay relative to control; details: read-out: Activity
UACC-257 = assay: Growth inhibition of human UACC-257 cells assessed as growth percentage at 1 uM incubated for 48 hrs by sulforhodamine B assay relative to control; details: read-out: Activity
SF-295 [9] = assay: Growth inhibition of human SF-295 cells assessed as growth percentage at 1 uM incubated for 48 hrs by sulforhodamine B assay relative to control; details: read-out: Activity
HCT-116 = assay: Growth inhibition of human HCT-116 cells assessed as growth percentage at 1 uM incubated for 48 hrs by sulforhodamine B assay relative to control; details: read-out: Activity
PC-3 [10] = assay: Growth inhibition of human PC-3 cells assessed as growth percentage at 0.1 uM incubated for 48 hrs by sulforhodamine B assay relative to control; details: read-out: Activity
NCI/ADR-RES [11] = assay: Growth inhibition of human NCI/ADR-RES cells assessed as growth percentage at 0.1 uM incubated for 48 hrs by sulforhodamine B assay relative to control; details: read-out: Activity
SF-295 [12] = assay: Growth inhibition of human SF-295 cells assessed as growth percentage at 0.1 uM incubated for 48 hrs by sulforhodamine B assay relative to control; details: read-out: Activity
HCT-15 = assay: Growth inhibition of human HCT-15 cells assessed as growth percentage at 0.1 uM incubated for 48 hrs by sulforhodamine B assay relative to control; details: read-out: Activity
HCC 2998 = assay: Growth inhibition of human HCC 2998 cells assessed as growth percentage at 0.1 uM incubated for 48 hrs by sulforhodamine B assay relative to control; details: read-out: Activity
SR [13] = assay: Growth inhibition of human SR cells assessed as growth percentage at 0.1 uM incubated for 48 hrs by sulforhodamine B assay relative to control; details: read-out: Activity
MCF7 = assay: Growth inhibition of human MCF7 cells assessed as growth percentage at 0.01 uM incubated for 48 hrs by sulforhodamine B assay relative to control; details: read-out: Activity
DU-145 = assay: Growth inhibition of human DU-145 cells assessed as growth percentage at 0.01 uM incubated for 48 hrs by sulforhodamine B assay relative to control; details: read-out: Activity
NCI/ADR-RES [14] = assay: Growth inhibition of human NCI/ADR-RES cells assessed as growth percentage at 0.01 uM incubated for 48 hrs by sulforhodamine B assay relative to control; details: read-out: Activity
SF-295 [15] = assay: Growth inhibition of human SF-295 cells assessed as growth percentage at 0.01 uM incubated for 48 hrs by sulforhodamine B assay relative to control; details: read-out: Activity
NCI-H522 = assay: Growth inhibition of human NCI-H522 cells assessed as growth percentage at 0.01 uM incubated for 48 hrs by sulforhodamine B assay relative to control; details: read-out: Activity
HOP-62 = assay: Growth inhibition of human HOP-62 cells assessed as growth percentage at 0.01 uM incubated for 48 hrs by sulforhodamine B assay relative to control; details: read-out: Activity

CCCCCCCC(=O)Nc1nc2[nH]c(CN3CCN(Cc4cccc(F)c4)CC3)c(CN3CCN(Cc4cccc(F)c4)CC3)c2c(=O)[nH]1
growth at 10 µM (RXF 393): -92.4%
growth at 10 µM (OVCAR-8): -77.7%
growth at 10 µM (UACC-62): -93.9%
growth at 10 µM (U-251): -92.7%
growth at 10 µM (NCI-H226): 87.6%
growth at 10 µM (SR [1]): -52.8%
growth at 10 µM (CCRF-CEM): -25.8%
GI50 (T47D [2]): 160 nM and 1600 nM
TGI (T47D [2]; Homo sapiens, T47D): 3.47 µM
CC50 (T47D [2]; Homo sapiens, T47D, read-out: LC50 (the source's name)): 7.53 µM
GI50 (BT-549 [3]): 1530 nM
TGI (BT-549 [3]): 2.92 µM
CC50 (BT-549 [3]; read-out: LC50 (the source's name)): 5.58 µM
GI50 (UO-31; 48 h): 3800 nM and 380 nM
LC50 (concentration killing 50% of cells) (UO-31; Homo sapiens, UO-31): 4.81 µM
TGI (UO-31; Homo sapiens, UO-31, 48 h): 1.7 µM
GI50 (M14; 48 h): 210 nM
TGI (M14; 48 h): 470 nM
LC50 (50% lethal concentration) (M14; Homo sapiens, M14): 1240 nM
GI50 (M14; Homo sapiens, M14, 48 h): 205 nM
TGI (M14; Homo sapiens, M14, 48 h): 466 nM
GI50 (SNB-19): 1560 nM
LC50 (concentration killing 50% of cells) (SNB-19): 6.34 µM
TGI (SNB-19): 3.14 µM
GI50 (SF-539): 1560 nM
growth at 100 µM (T47D [4]): -68%
growth at 100 µM (BT-549 [5]): -91%
growth at 100 µM (CAKI-1 [6]): -96%
growth at 100 µM (MDA-MB-435): -83%
growth at 100 µM (SW-620): -69%
growth at 100 µM (COLO 205): -94%
growth at 1 µM (MDA-MB-231): 33%
growth at 1 µM (PC-3 [7]): 68%
growth at 1 µM (CAKI-1 [8]): 70%
growth at 1 µM (786-0): 83%
growth at 1 µM (IGROV-1): 72%
growth at 1 µM (UACC-257): -48%
growth at 1 µM (SF-295 [9]): 74%
growth at 1 µM (HCT-116): -91%
growth at 0.1 µM (PC-3 [10]): 96%
growth at 0.1 µM (NCI/ADR-RES [11]): 95%
growth at 0.1 µM (SF-295 [12]): 94%
growth at 0.1 µM (HCT-15): 94%
growth at 0.1 µM (HCC 2998): 104%
growth at 0.1 µM (SR [13]): 88%
growth at 0.01 µM (MCF7): 91%
growth at 0.01 µM (DU-145): 100%
growth at 0.01 µM (NCI/ADR-RES [14]): 100%
growth at 0.01 µM (SF-295 [15]): 97%
growth at 0.01 µM (NCI-H522): 106%
growth at 0.01 µM (HOP-62): 99%

Nc1nc2[nH]c(CN3CCN(c4cc(Cl)cc(Cl)c4)CC3)c(CN3CCN(c4cc(Cl)cc(Cl)c4)CC3)c2c(=O)[nH]1
growth at 10 µM (RXF 393): 81%
growth at 10 µM (OVCAR-8): 40.6%
growth at 10 µM (UACC-62): 77.8%
growth at 10 µM (U-251): 36.6%
growth at 10 µM (NCI-H226): 96.5%
growth at 10 µM (SR [1]): 12.1%
growth at 10 µM (CCRF-CEM): 45.1%
TGI (T47D [2]; Homo sapiens, T47D): 4.02 µM
GI50 (T47D [2]; Homo sapiens, T47D): 1780 nM
GI50 (BT-549 [3]): 1720 nM
TGI (BT-549 [3]): 3.76 µM
GI50 (UO-31; 48 h): 1170 nM and 11700 nM
TGI (UO-31; 48 h): 31.8 µM and 3.18 µM
GI50 (M14; Homo sapiens, M14, 48 h): 1830 nM
TGI (M14; Homo sapiens, M14, 48 h): 3630 nM
GI50 (SNB-19): 1770 nM
TGI (SNB-19): 3.67 µM
GI50 (SF-539): 1720 nM
TGI (SF-539): 3.26 µM
growth at 100 µM (T47D [4]): -44%
growth at 100 µM (BT-549 [5]): -37%
growth at 100 µM (CAKI-1 [6]): -97%
growth at 100 µM (MDA-MB-435): -80%
growth at 100 µM (SW-620): -79%
growth at 100 µM (COLO 205): -45%
growth at 1 µM (MDA-MB-231): 101%
growth at 1 µM (PC-3 [7]): 86%
growth at 1 µM (CAKI-1 [8]): 91%
growth at 1 µM (786-0): 82%
growth at 1 µM (IGROV-1): 96%
growth at 1 µM (UACC-257): 93%
growth at 1 µM (SF-295 [9]): 89%
growth at 1 µM (HCT-116): 87%
growth at 0.1 µM (PC-3 [10]): 96%
growth at 0.1 µM (NCI/ADR-RES [11]): 97%
growth at 0.1 µM (SF-295 [12]): 93%
growth at 0.1 µM (HCT-15): 95%
growth at 0.1 µM (HCC 2998): 99%
growth at 0.1 µM (SR [13]): 105%
growth at 0.01 µM (MCF7): 86%
growth at 0.01 µM (DU-145): 110%
growth at 0.01 µM (NCI/ADR-RES [14]): 101%
growth at 0.01 µM (SF-295 [15]): 87%
growth at 0.01 µM (NCI-H522): 95%
growth at 0.01 µM (HOP-62): 81%
